The supplement of paper PMC10307832

Tests used:
Test in all cases: relative viability (nuclei count vs DMSO), 5 days (fraction); higher = more cells survive
XMD13-2 + Dasatinib = compound: C1CC1C(=O)NC2=NNC3=C2C=CC(=C3)C4=CC(=CC=C4)C(=O)NC5CC5 [XMD13-2] + Cc1nc(Nc2ncc(C(=O)Nc3c(C)cccc3Cl)s2)cc(N2CCN(CCO)CC2)n1 [Dasatinib] (partner 0.075 µM)
Summary of the method: (§1)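 Lung cancer cell lines were pin-tool dosed in 1536-well plates on the day after seeding, with either a lone drug or a fixed anchor-drug dose plus five library-drug doses (not always all listed) in √10 steps. Nuclei were counted on 4× images after 5 days. Relative viability is the ratio of treated-well to vehicle-well nuclei counts, with each value a median of duplicate plates.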

XMD13-2 + Phenformin = compound: C1CC1C(=O)NC2=NNC3=C2C=CC(=C3)C4=CC(=CC=C4)C(=O)NC5CC5 [XMD13-2] + N=C(N)NC(=N)NCCc1ccccc1 [Phenformin] (partner 250 µM)
Summary of the method: as §1

ALW-II-49-7 + Lapatinib = compound: Cc1ccc(C(=O)Nc2cccc(C(F)(F)F)c2)cc1Nc1cncc(C(N)=O)c1 [ALW-II-49-7] + CS(=O)(=O)CCNCc1ccc(-c2ccc3ncnc(Nc4ccc(OCc5cccc(F)c5)c(Cl)c4)c3c2)o1 [Lapatinib] (partner 2 µM)
Summary of the method: as §1

Dasatinib + OSI-027 = compound: Cc1nc(Nc2ncc(C(=O)Nc3c(C)cccc3Cl)s2)cc(N2CCN(CCO)CC2)n1 [Dasatinib] + COc1cccc2cc(-c3nc([C@H]4CC[C@H](C(=O)O)CC4)n4ncnc(N)c34)[nH]c12 [OSI-027] (partner 0.5 µM)
Summary of the method: as §1

Cell Line | relative viability (XMD13-2 + Dasatinib; first compound 0.05 µM) | relative viability (XMD13-2 + Dasatinib; first compound 0.1581 µM) | relative viability (XMD13-2 + Dasatinib; first compound 0.5 µM) | relative viability (XMD13-2 + Dasatinib; first compound 1.581 µM) | relative viability (XMD13-2 + Dasatinib; first compound 5 µM) | relative viability (XMD13-2 + Phenformin; first compound 0.05 µM) | relative viability (XMD13-2 + Phenformin; first compound 0.1581 µM) | relative viability (XMD13-2 + Phenformin; first compound 0.5 µM) | relative viability (XMD13-2 + Phenformin; first compound 1.581 µM) | relative viability (XMD13-2 + Phenformin; first compound 5 µM) | relative viability (ALW-II-49-7 + Lapatinib; first compound 0.08 µM) | relative viability (ALW-II-49-7 + Lapatinib; first compound 0.253 µM) | relative viability (ALW-II-49-7 + Lapatinib; first compound 0.8 µM) | relative viability (ALW-II-49-7 + Lapatinib; first compound 2.53 µM) | relative viability (ALW-II-49-7 + Lapatinib; first compound 8 µM) | relative viability (Dasatinib + OSI-027; first compound 0.005 µM) | relative viability (Dasatinib + OSI-027; first compound 0.01581 µM) | relative viability (Dasatinib + OSI-027; first compound 0.05 µM) | relative viability (Dasatinib + OSI-027; first compound 0.1581 µM) | relative viability (Dasatinib + OSI-027; first compound 0.5 µM)
NCI-H322M | 0.237 | 0.239 | 0.24 | 0.263 | 0.283 | 0.858 | 0.84 | 0.774 | 0.782 | 0.905 | 0.592 | 0.583 | 0.613 | 0.635 | 0.556 | 0.549 | 0.483 | 0.351 | 0.213 | 0.168
NCI-H358 | 0.201 | 0.162 | 0.142 | 0.174 | 0.171 | 0.358 | 0.323 | 0.336 | 0.351 | 0.304 | 0.518 | 0.387 | 0.423 | 0.538 | 0.5 | 0.806 | 0.542 | 0.439 | 0.149 | 0.122
NCI-H460 | 0.636 | 0.466 | 0.525 | 0.578 | 0.626 | 0.589 | 0.537 | 0.57 | 0.486 | 0.542 | 0.834 | 0.701 | 1.03 | 0.936 | 0.528 | 0.549 | 0.474 | 0.405 | 0.387 | 0.17
NCI-H520 | 0.213 | 0.261 | 0.208 | 0.231 | 0.182 | 0.529 | 0.604 | 0.591 | 0.529 | 0.499 | 0.666 | 0.544 |  | 0.627 | 0.846 | 0.24 | 0.144 | 0.158 | 0.151 | 0.133
NCI-H596 | 0.683 | 0.571 | 0.578 | 0.713 | 0.664 | 0.768 | 0.863 | 0.78 | 0.913 | 0.836 | 1.03 | 1.1 | 1.13 | 1.02 | 0.978 | 0.656 | 0.632 | 0.547 | 0.479 | 0.306
NCI-H647 | 0.17 | 0.172 | 0.207 | 0.13 | 0.115 | 0.697 | 0.605 | 0.678 | 0.659 | 0.435 | 0.779 | 0.772 | 1.18 | 0.806 | 0.855 | 0.672 | 0.303 | 0.251 | 0.213 | 0.118
NCI-H650 | 0.463 | 0.452 | 0.524 | 0.39 | 0.546 | 0.438 | 0.544 | 0.534 | 0.425 | 0.488 | 0.843 | 0.843 | 0.915 | 0.841 | 0.662 | 0.591 | 0.524 | 0.493 | 0.303 | 0.265
NCI-H661 | 0.973 | 0.96 | 0.811 | 0.737 | 0.523 | 0.261 | 0.292 | 0.274 | 0.267 | 0.271 | 0.47 | 0.474 | 0.383 |  | 0.483 | 0.686 | 0.604 | 0.586 | 0.522 | 0.402
NCI-H727 | 0.383 | 0.344 | 0.38 | 0.478 | 0.426 | 0.619 | 0.518 | 0.556 | 0.584 | 0.525 | 0.984 | 1.08 | 0.872 | 0.965 | 0.871 | 0.6 | 0.488 | 0.45 | 0.295 | 0.197
NCI-H838 | 0.276 | 0.293 | 0.274 | 0.241 | 0.318 | 0.663 | 0.538 | 0.65 | 0.544 | 0.632 | 0.941 | 0.887 | 0.797 | 1.04 | 0.853 | 0.409 | 0.266 | 0.265 | 0.252 | 0.179
NCI-H1355 | 0.847 | 0.839 | 0.79 | 0.695 | 0.61 | 0.5 | 0.451 | 0.465 | 0.462 | 0.517 | 0.959 | 1.13 | 0.97 | 1.02 | 0.934 | 0.434 | 0.291 | 0.287 | 0.272 | 0.271
NCI-H1395 | 0.459 | 0.428 | 0.402 | 0.394 | 0.441 | 0.449 | 0.446 | 0.435 | 0.429 | 0.45 | 0.869 | 1.21 | 1.05 | 0.967 | 0.929 | 0.615 | 0.7 | 0.541 | 0.361 | 0.35
NCI-H1437 | 0.409 | 0.442 | 0.397 | 0.352 | 0.556 | 0.297 | 0.305 | 0.299 | 0.311 | 0.341 | 0.786 | 0.731 |  | 0.786 | 0.749 | 1.01 | 0.863 | 0.837 | 0.798 | 0.365
NCI-H1563 | 0.485 | 0.435 | 0.43 | 0.436 | 0.506 | 0.683 | 0.697 | 0.64 | 0.669 | 0.679 | 1.07 | 0.92 | 1.16 | 0.837 | 0.897 | 0.702 | 0.691 | 0.626 | 0.618 | 0.541
NCI-H1650 | 0.268 | 0.367 | 0.318 | 0.282 | 0.296 | 0.634 | 0.476 | 0.552 | 0.432 | 0.558 | 0.955 | 0.846 | 0.854 | 1.04 | 0.753 | 0.571 | 0.355 | 0.318 | 0.219 | 0.171
NCI-H1651 | 0.508 | 0.351 | 0.423 | 0.374 | 0.538 | 0.382 | 0.323 | 0.392 | 0.37 | 0.343 | 0.719 | 0.879 | 0.672 | 0.776 | 0.794 | 0.801 | 0.503 | 0.529 | 0.572 | 0.487
NCI-H1666 | 0.789 | 0.852 | 0.861 | 0.813 | 0.851 | 0.544 | 0.6 | 0.595 | 0.546 | 0.593 | 0.533 | 0.674 | 0.695 | 0.831 | 0.652 | 0.915 | 0.843 | 0.849 | 0.733 | 0.486
NCI-H1734 | 0.493 | 0.419 | 0.484 | 0.373 | 0.428 | 0.463 | 0.354 | 0.391 | 0.386 | 0.363 | 1.07 | 1.07 | 1.05 | 1.04 | 0.898 | 0.562 | 0.432 | 0.476 | 0.411 | 0.307
NCI-H1755 | 0.526 | 0.425 | 0.418 | 0.459 | 0.428 | 0.643 | 0.666 | 0.596 | 0.642 | 0.677 | 0.904 | 1.04 | 1.04 | 1.04 | 0.608 | 0.679 | 0.604 | 0.507 | 0.384 | 0.191
NCI-H1792 | 0.966 | 1.03 | 0.798 | 0.971 | 0.829 | 0.29 | 0.306 | 0.259 | 0.324 | 0.352 | 0.673 | 0.881 | 0.943 | 0.98 | 0.774 | 0.774 | 0.559 | 0.681 | 0.461 | 0.333
NCI-H1793 | 0.457 |  | 0.41 | 0.4 | 0.429 | 0.436 |  | 0.409 | 0.393 | 0.36 | 0.811 | 0.708 | 0.796 | 0.787 | 0.988 | 0.2 | 0.238 | 0.234 | 0.218 | 0.147
NCI-H1915 | 0.362 | 0.342 | 0.322 | 0.302 | 0.305 | 0.381 | 0.362 | 0.367 | 0.371 | 0.379 | 0.949 | 1.01 | 0.914 | 0.848 | 0.644 | 0.559 | 0.516 | 0.463 | 0.187 | 0.164
NCI-H1944 | 0.226 | 0.236 | 0.229 | 0.235 | 0.213 | 0.219 | 0.224 | 0.225 | 0.23 | 0.203 | 0.82 | 0.915 | 0.843 | 0.889 | 0.623 | 0.365 | 0.404 | 0.284 | 0.179 | 0.174
NCI-H1975 | 0.444 | 0.361 | 0.467 | 0.324 | 0.393 | 0.436 | 0.395 | 0.407 | 0.42 | 0.401 | 0.742 | 0.835 | 0.763 | 0.994 | 0.87 | 0.608 | 0.589 | 0.556 | 0.32 | 0.201
NCI-H1993 | 0.601 | 0.44 | 0.526 | 0.519 | 0.573 | 0.456 | 0.493 | 0.55 | 0.553 | 0.566 | 0.663 | 0.811 | 0.863 | 0.825 | 0.695 | 0.512 | 0.524 | 0.491 | 0.532 | 0.554
NCI-H2009 | 0.366 | 0.277 | 0.432 | 0.288 | 0.278 | 0.473 | 0.486 | 0.54 | 0.454 | 0.517 | 0.913 | 1.02 | 0.819 | 0.728 | 0.466 | 0.698 | 0.501 | 0.407 | 0.189 | 0.158
NCI-H2023 | 0.806 | 0.545 | 0.688 | 0.559 | 0.64 | 0.561 | 0.434 | 0.399 | 0.428 | 0.426 | 0.801 | 0.6 | 0.866 | 0.743 | 0.58 | 0.418 | 0.326 | 0.248 | 0.26 | 0.211
